We go through 38 compounds from patent US20030134859A1 (SANKYO COMPANY, LIMITED, priority 2000, published 2003).

The test system of one experiment is Rat white adipocytes. As to the kind of experiment: Stimulation of differentiation of the adipocytes (Oil Red O). The class given is cell-based. To be noted: Rattus norvegicus, Adipocyte, 120 h, 100 nM test compound; 5 days; Oil Red O ABS550; control = 100%, blank = 0%; Table 7; read-out: Rate of Differentiation (%). The method in brief: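 Oil Red O lipid staining, absorbance 550 nm after DMSO extraction, quantified differentiation of rat white adipocytes exposed 5 days to compound (final 100 nM, 0.1% DMSO) in differentiation medium. Percent differentiation normalised between cell-free blank (0%) and DMSO control (100%).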

In experiment [1] the test system is human colon cancer cells COL-2-JCK. As to the kind of experiment: Inhibition of colony forming activity in human colon cancer cells. The class given is cell-based. As to conditions: Homo sapiens, 240 h; 1 μM test compound; 10 days; sum of colony areas vs control; read-out: Inhibition Rate (%) against the colony forming activity. The method in brief: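 COL-2-JCK cells seeded at 300 cells/well and grown 10 days at 37 °C, 5% CO2 with compound at 1 μM final (0.1% DMSO). Colonies stained with crystal violet in formalin; inhibition % = (1 − treated/control colony area)×100.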

On to `Cc1ccc(NC(=O)c2cc([N+](=O)[O-])ccc2Cl)cc1` [Example 1, N-(4-Methylphenyl)-(2-chloro-5-nitrophenyl)carboxamide], for which the activity at 0.1 µM in the experiment with Rat white adipocytes was 121%. Regarding `O=C(Nc1ccc(-c2ccccc2)cc1)c1cc([N+](=O)[O-])ccc1Cl` [Example 2, N-(4-Phenylphenyl)-(2-chloro-5-nitrophenyl)carboxamide], in experiment [1], the inhibition at 1 µM is 8%. Also, the activity at 0.1 µM in the experiment on Rat white adipocytes was found to be 127%. For the compound `Cc1cnc(NC(=O)c2cc([N+](=O)[O-])ccc2Cl)s1` [Example 4, N-(5-Methylthiazol-2-yl)-(2-chloro-5-nitrophenyl)carboxamide], in experiment [1], the inhibition at 1 µM turned out to be 62%. Further, in the experiment with Rat white adipocytes, the activity at 0.1 µM is 128%. As to `O=C(Nc1cccc(-c2ccccc2)c1)c1cc([N+](=O)[O-])ccc1Cl` [Example 5, N-(3-Phenylphenyl)-(2-chloro-5-nitrophenyl)carboxamide], the inhibition at 1 µM in experiment [1] was 26%.

Turning to `COc1ccc(NC(=O)c2cc([N+](=O)[O-])ccc2Cl)cc1-c1ccccc1` [Example 6, N-(4-Methoxy-3-phenyl)phenyl-(2-chloro-5-nitrophenyl)carboxamide], the inhibition at 1 µM in experiment [1] came to 22%.

For the compound `O=C(Nc1ccccc1-c1ccccc1)c1cc([N+](=O)[O-])ccc1Cl` [Example 7, N-(2-Phenylphenyl)-(2-chloro-5-nitrophenyl)carboxamide], in experiment [1], the inhibition at 1 µM stood at 24%. For the same compound, the activity at 0.1 µM with Rat white adipocytes is 120%. In the case of `O=C(Nc1ccc(-c2ccccn2)cc1)c1cc([N+](=O)[O-])ccc1Cl` [Example 8, N-[4-(2-Pyridyl)phenyl]-(2-chloro-5-nitrophenyl)carboxamide], the activity at 0.1 µM in the experiment with Rat white adipocytes amounted to 114%. In the case of `CCCCCc1ccc(NC(=O)c2cc([N+](=O)[O-])ccc2Cl)cc1` [Example 16, N-(4-Pentylphenyl)-(2-chloro-5-nitrophenyl)carboxamide], the inhibition at 1 µM in experiment [1] is 48%. The activity at 0.1 µM in the experiment with Rat white adipocytes was found to be 136%. As for `N#Cc1ccc(NC(=O)c2cc([N+](=O)[O-])ccc2Cl)cc1` [Example 20, N-(4-Cyanophenyl)-(2-chloro-5-nitrophenyl)carboxamide], the inhibition at 1 µM in experiment [1] worked out at 37%.

Consider `CC(C)(C)c1cc(NC(=O)c2cc([N+](=O)[O-])ccc2Cl)cc(C(C)(C)C)c1O` [Example 29, N-(3,5-Di-t-butyl-4-hydroxyphenyl)-(2-chloro-5-nitrophenyl)carboxamide], for which the inhibition at 1 µM in experiment [1] turned out to be 41%. The activity at 0.1 µM in the experiment with Rat white adipocytes worked out at 111%.

For `O=C(Nc1cccc(NS(=O)(=O)c2ccccc2)c1)c1cc([N+](=O)[O-])ccc1Cl` [Example 30, N-(3-Benzensulfonylaminophenyl)-(2-chloro-5-nitrophenyl)carboxamide], the inhibition at 1 µM in experiment [1] is 42%. For the same compound, the activity at 0.1 µM in the experiment with Rat white adipocytes amounted to 139%. As for `O=C(Nc1nc(-c2ccccc2)cs1)c1cc([N+](=O)[O-])ccc1Cl` [Example 35, N-(4-Phenylthiazol-2-yl)-(2-chloro-5-nitrophenyl)carboxamide], the inhibition at 1 µM in experiment [1] was 15%. Besides, the activity at 0.1 µM in the experiment with Rat white adipocytes turned out to be 122%. Turning to `O=C(Nc1nc(-c2cccnc2)cs1)c1cc([N+](=O)[O-])ccc1Cl` [Example 37, N-[4-(3-Pyridyl)thiazol-2-yl)-(2-chloro-5-nitrophenyl)carboxamide], the inhibition at 1 µM in experiment [1] was 52%. Also, in the experiment on Rat white adipocytes, the activity at 0.1 µM was determined as 114%.

Consider `O=C(Nc1nc(-c2ccccn2)cs1)c1cc([N+](=O)[O-])ccc1Cl` [Example 38, N-[4-(2-Pyridyl)thiazol-2-yl)-(2-chloro-5-nitrophenyl)carboxamide], for which, in experiment [1], the inhibition at 1 µM came out at 99.9%. Besides, the activity at 0.1 µM in the experiment on Rat white adipocytes is 137%. For the compound `Cc1ccccc1-c1csc(NC(=O)c2cc([N+](=O)[O-])ccc2Cl)n1` [Example 39, N-[4-(2-Methylphenyl)thiazol-2-yl]-(2-chloro-5-nitrophenyl)carboxamide], the inhibition at 1 µM in experiment [1] amounted to 48%. As for `Cc1cccc(-c2csc(NC(=O)c3cc([N+](=O)[O-])ccc3Cl)n2)c1` [Example 40, N-[4-(3-Methylphenyl)thiazol-2-yl)-(2-chloro-5-nitrophenyl)carboxamide], the inhibition at 1 µM in experiment [1] was 35%. For the same compound, the activity at 0.1 µM in the experiment with Rat white adipocytes was 122%. With `O=C(Nc1nc(-c2cccc3ccccc23)cs1)c1cc([N+](=O)[O-])ccc1Cl` [Example 41, N-[4-(1-Naphthyl)thiazol-2-yl]-(2-chloro-5-nitrophenyl)carboxamide], the inhibition at 1 µM in experiment [1] came out at 55%. Besides, in the experiment with Rat white adipocytes, the activity at 0.1 µM was 118%. Regarding `CCc1ccc(-c2csc(NC(=O)c3cc([N+](=O)[O-])ccc3Cl)n2)cc1` [Example 44, N-[4-(4-Ethylphenyl)thiazol-2-yl]-(2-chloro-5-nitrophenyl)carboxamide], the inhibition at 1 µM in experiment [1] stood at 35%. Turning to `Cc1ccc(-c2nc(NC(=O)c3cc([N+](=O)[O-])ccc3Cl)sc2C)cc1Cl` [Example 46, N-[4-(3-Chloro-4-methylphenyl)-5-methylthiazol-2-yl]-(2-chloro-5-nitrophenyl)carboxamide], in the experiment with Rat white adipocytes, the activity at 0.1 µM worked out at 124%.

As to `Cc1nc(NC(=O)c2cc([N+](=O)[O-])ccc2Cl)sc1C` [Example 47], in experiment [1], the inhibition at 1 µM came out at 18%. In addition, the activity at 0.1 µM in the experiment with Rat white adipocytes was 141%. For `Cc1cccc(NC(=O)c2cc([N+](=O)[O-])ccc2Cl)n1` [Example 51, N-(6-Methylpyridin-2-yl)-(2-chloro-5-nitrophenyl)carboxamide], in that order: 15% and 129%. Regarding `O=C(Nc1ccc2c3c(cccc13)CC2)c1cc([N+](=O)[O-])ccc1Cl` [Example 54, N-(Acenaphthen-5-yl)-(2-chloro-5-nitrophenyl)carboxamide], the activity at 0.1 µM with Rat white adipocytes was found to be 118%. On to `O=C(Nc1cccc2cccnc12)c1cc([N+](=O)[O-])ccc1Cl` [Example 57, N-(8-Quinolinyl)-(2-chloro-5-nitrophenyl)carboxamide], for which the inhibition at 1 µM in experiment [1] is 5%.

With `Cc1ccnc(NC(=O)c2cc([N+](=O)[O-])ccc2Cl)n1` [Example 65, N-(4-Methylpyrimidin-2-yl)-(2-chloro-5-nitrophenyl)carboxamide], in the experiment with Rat white adipocytes, the activity at 0.1 µM amounted to 112%. Take `COC(=O)c1sccc1NC(=O)c1cc([N+](=O)[O-])ccc1Cl` [Example 66, N-(2-Methoxycarbonylthiophen-3-yl)-(2-chloro-5-nitrophenyl)carboxamide]: in the experiment with Rat white adipocytes, the activity at 0.1 µM turned out to be 113%.

Regarding `Cn1c(NC(=O)c2cc([N+](=O)[O-])ccc2Cl)nc2ccccc21` [Example 82, N-(1-Methylbenzimidazol-2-yl)-(2-chloro-5-nitrophenyl)carboxamide], the activity at 0.1 µM in the experiment with Rat white adipocytes amounted to 114%. For the compound `O=C(Nc1nncs1)c1cc([N+](=O)[O-])ccc1Cl` [Example 85, N-(1,3,4-Thiadiazol-2-yl)-(2-chloro-5-nitrophenyl)carboxamide], in the experiment with Rat white adipocytes, the activity at 0.1 µM is 125%. On the same count and under the same terms, then `N=C(N)NS(=O)(=O)c1ccc(NC(=O)c2cc([N+](=O)[O-])ccc2Cl)cc1` [Example 106, N-[4-(Amidinoaminosulfonyl)phenyl]-(2-chloro-5-nitrophenyl)carboxamide], with 113%; and `Cc1ccc(S(=O)(=O)Nc2ccc(NC(=O)c3cc([N+](=O)[O-])ccc3Cl)cc2)cc1` [Example 116, N-[4-(4-Toluenesulfonylamino)phenyl]-(2-chloro-5-nitrophenyl)carboxamide], with 124%. In the case of `CC(=O)Nc1ccc(NC(=O)c2cc([N+](=O)[O-])ccc2Cl)cc1` [Example 117, N-(4-Acetylaminophenyl)-(2-chloro-5-nitrophenyl)carboxamide], the activity at 0.1 µM in the experiment on Rat white adipocytes was found to be 122%. With `O=C(Nc1ccc(NC(=O)c2cc([N+](=O)[O-])ccc2Cl)cc1)c1ccccc1` [Example 119, N-(4-Benzoylaminophenyl)-(2-chloro-5-nitrophenyl)carboxamide], the activity at 0.1 µM in the experiment with Rat white adipocytes came to 135%.

On to `O=C(Nc1ccc(NC(=O)c2cc([N+](=O)[O-])ccc2Cl)cc1)c1ccncc1` [Example 125, N-[4-(Pyridin-4-ylcarbonylamino)phenyl]-(2-chloro-5-nitrophenyl)carboxamide], for which the activity at 0.1 µM in the experiment on Rat white adipocytes came to 132%. On to `CCCCCCN(CCCCCC)c1ccc(NC(=O)c2cc([N+](=O)[O-])ccc2Cl)cc1` [Example 138, N-[4-(N,N-di-n-Hexylamino)phenyl]-(2-chloro-5-nitrophenyl)carboxamide], for which the activity at 0.1 µM in the experiment on Rat white adipocytes turned out to be 126%. Consider `CC(C)(C)c1cc(C(=O)Nc2ccc(NC(=O)c3cc([N+](=O)[O-])ccc3Cl)cc2)cc(C(C)(C)C)c1O` [Example 157, N-[4-[(3,5-di-tert-Butyl-4-hydroxybenzoyl)amino]phenyl]-(2-chloro-5-nitrophenyl)carboxamide], for which the activity at 0.1 µM with Rat white adipocytes was 116%. Consider `CN(C)c1cccc(NC(=O)c2cc([N+](=O)[O-])ccc2Cl)c1` [Example 176, N-(3-Dimethylamino)phenyl-(2-chloro-5-nitrophenyl)carboxamide], for which, in the experiment with Rat white adipocytes, the activity at 0.1 µM turned out to be 118%. As to `O=C(Nc1ccc(S(=O)(=O)Nc2ccc(N3CCOCC3)cc2)cc1)c1cc([N+](=O)[O-])ccc1Cl` [Example 179, N-[4-[4-(Morpholin-4-yl)phenyl]aminosulfonyl]phenyl-(2-chloro-5-nitrophenyl)carboxamide], in the experiment with Rat white adipocytes, the activity at 0.1 µM was found to be 128%. Turning to `CCCNc1ccc(NC(=O)c2cc([N+](=O)[O-])ccc2Cl)cc1` [Example 181, N-[4-(N-Propylamino)phenyl]-(2-chloro-5-nitrophenyl)carboxamide], in the experiment with Rat white adipocytes, the activity at 0.1 µM stood at 128%. As to `CCCN(CC)c1ccc(NC(=O)c2cc([N+](=O)[O-])ccc2Cl)cc1` [Example 189, N-[4-(N-Ethyl-N-propylamino)phenyl]-(2-chloro-5-nitrophenyl)carboxamide], the activity at 0.1 µM with Rat white adipocytes turned out to be 133%.

The term inhibition denotes the drop in the measured response relative to a control, in per cent.
